Molecules are shown by their SMILES.

With `CCSc1cc(C)nc(SCC)c1NC(=O)CCCCCCCSc1nc2cccc(C(F)(F)F)c2o1` [Compound No. 1273, 8-(7-trifluoromethylbenzoxazol-2-ylthio)-N-[2,4-bis(ethylthio)-6-methyl-3-pyridyl]octanamide], the melting point (in general, the temperature of the solid-liquid transition) is 99 to 100 °C.

The compound `CCSc1cc(C)nc(SCC)c1NC(=O)CCCCCCSc1nc2ccccc2[nH]1` [Compound No. 836, 7-(benzimidazol-2-ylthio)-N-[2,4-bis(ethylthio)-6-methyl-3-pyridyl]heptanamide] displayed a melting point of 151 to 156 °C. The value for `CCSc1cc(C)nc(SCC)c1NC(=O)CCCCSc1nc2ccccc2s1` [Compound No. 824, 5-(benzothiazol-2-ylthio)-N-[2,4-bis(ethylthio)-6-methyl-3-pyridyl]pentanamide] was 102 to 104 °C; that for `CCSc1cc(C)nc(SCC)c1NC(=O)CCCCCCCSc1nc2ccccc2s1` [Compound No. 827, 8-(benzothiazol-2-ylthio)-N-[2,4-bis(ethylthio)-6-methyl-3-pyridyl]octanamide] was 94 to 96 °C; that for `CCSc1cc(C)nc(SCC)c1NC(=O)CCCCCCCCSc1nc2c(C)c(Cl)cc(C(C)C)c2o1` [Compound No. 1284, 9-(5-chloro-7-isopropyl-4-methylbenzoxazol-2-ylthio)-N-[2,4-bis(ethylthio)-6-methyl-3-pyridyl]nonanamide] was 93 to 94 °C. As for `Cc1cc(SC(C)C)c(NC(=O)CCCCCSc2nc3cccc(C(F)(F)F)c3o2)c(SC(C)C)n1` [Compound No. 1291, 6-(7-trifluoromethylbenzoxazol-2-ylthio)-N-[2,4-bis(isopropylthio)-6-methyl-3-pyridyl]hexanamide], the melting point lay within 102 to 103 °C. Regarding `CSc1nc(C)ccc1NC(=O)CSc1nc2ccccc2[nH]1` [Compound No. 471, 2-(benzimidazol-2-ylthio)-N-(6-methyl-2-methylthio-3-pyridyl)acetamide], the melting point is 192 to 193 °C (dec.). Compound `CCSc1cc(C)nc(SCC)c1NC(=O)CCCCCCSc1nc2c(C)c(Cl)cc(C(C)C)c2o1` [Compound No. 1282, 7-(5-chloro-7-isopropyl-4-methylbenzoxazol-2-ylthio)-N-[2,4-bis(ethylthio)-6-methyl-3-pyridyl]heptanamide] displayed a melting point of 117 to 120 °C.

For `CSc1nc(C)ccc1NC(=O)CCCCCCCCSc1nc2ccccc2o1` [compound 458, 9-(benzoxazol-2-ylthio)-N-(6-methyl-2-methylthio-3-pyridyl)nonanamide], the melting point fell in the range of 99 to 100 °C. The value for `CSc1cc(C)nc(SC)c1NC(=O)CCCCSc1nc2c(C)c(Cl)cc(C(C)C)c2o1` [Compound No. 1260, 5-(5-chloro-7-isopropyl-4-methylbenzoxazol-2-ylthio)-N-[2,4-bis(methylthio)-6-methyl-3-pyridyl]pentanamide] was 155 to 156 °C; that for `CCSc1cc(C)nc(SCC)c1NC(=O)CCCCSc1nc2ccccc2[nH]1` [Compound No. 834, 5-(benzimidazol-2-ylthio)-N-[2,4-bis(ethylthio)-6-methyl-3-pyridyl]pentanamide] was 163 to 165 °C; that for `CCSc1cc(C)nc(SCC)c1NC(=O)CCCCCCCCSc1nc2cccc(C(F)(F)F)c2o1` [Compound No. 1274, 9-(7-trifluoromethylbenzoxazol-2-ylthio)-N-[2,4-bis(ethylthio)-6-methyl-3-pyridyl]nonanamide] was 115 to 116 °C. The figure for `CSc1ncccc1NC(=O)CCCCCCCCSc1nc2ccccc2s1` [compound 18, 9-(benzothiazol-2-ylthio)-N-(2-methylthio-3-pyridyl)nonanamide] is 107 to 108 °C. The value for `CSc1nc(C)ccc1NC(=O)CCCCCSc1nc2ccccc2o1` [compound 455, 6-(benzoxazol-2-ylthio)-N-(6-methyl-2-methylthio-3-pyridyl)hexanamide] was 140 to 141 °C; that for `CSc1cc(C)nc(SC)c1NC(=O)CCCCSc1nc2ccccc2s1` [Compound No. 794, 5-(benzothiazol-2-ylthio)-N-(2,4-bis(methylthio)-6-methyl-3-pyridyl)pentanamide] was 121 to 123 °C. Regarding `CSc1cc(C)nc(SC)c1NC(=O)CCCCCSc1nc2ccccc2[nH]1` [compound 805, 6-(benzimidazol-2-ylthio)-N-[2,4-bis(methylthio)-6-methyl-3-pyridyl]hexanamide], the melting point was in the range of 139 to 141 °C. The figure for `Cc1cc(SC(C)C)c(NC(=O)CCCCCCSc2nc3ccccc3s2)c(SC(C)C)n1` [Compound No. 856, 7-(benzothiazol-2-ylthio)-N-[2,4-bis(isopropylthio)-6-methyl-3-pyridyl]heptanamide] is 74 to 76 °C; for `CSc1nccc(C)c1NC(=O)CCCCCCCCSc1nc2ccccc2o1` [compound 158, 9-(benzoxazol-2-ylthio)-N-(4-methyl-2-methylthio-3-pyridyl)nonanamide] it is 91 to 92 °C. As to `CSc1nc(C)nc(SC)c1NC(=O)CCCCCSc1nc2ccccc2o1` [Compound No. 1145, 6-(benzoxazole-2-ylthio)-N-[2-methyl-4,6-bis(methylthio)-5-pyrimidyl)hexanamide], the melting point is 148 to 151 °C. The value for `Cc1cc(SC(C)C)c(NC(=O)CSc2nc3ccccc3[nH]2)c(SC(C)C)n1` [Compound No. 861, 2-(benzimidazol-2-ylthio)-N-[2,4-bis(isopropylthio)-6-methyl-3-pyridyl]acetamide] was 223 to 224 °C; that for `Cc1cc(SC(C)C)c(NC(=O)CSc2nc3ccccc3s2)c(SC(C)C)n1` [Compound No. 851, 2-(benzothiazol-2-ylthio)-N-[2,4-bis(isopropylthio)-6-methyl-3-pyridyl]acetamide] was 117 to 118 °C. The figure for `Cc1cc(SC(C)C)c(NC(=O)CCCCSc2nc3ccccc3o2)c(SC(C)C)n1` [Compound No. 844, 5-(benzoxazol-2-ylthio)-N-[2,4-bis(isopropylthio)-6-methyl-3-pyridyl]pentanamide] is 129 to 130 °C. On to `CCSc1cc(C)nc(SCC)c1NC(=O)CCCCCSc1nc2ccccc2s1` [compound 825, 6-(benzothiazol-2-ylthio)-N-[2,4-bis(ethylthio)-6-methyl-3-pyridyl]hexanamide], for which the melting point lay in the range of 81 to 83 °C. For the compound `CSc1cc(C)nc(SC)c1NC(=O)CCCCCCSc1nc2c(C)c(Cl)cc(C(C)C)c2o1` [Compound No. 1262, 7-(5-chloro-7-isopropyl-4-methylbenzoxazol-2-ylthio)-N-[2,4-bis(methylthio)-6-methyl-3-pyridyl]heptanamide], the melting point was 129 to 131 °C. For `CCSc1cc(C)nc(SCC)c1NC(=O)CSc1nc2cccc(S(C)(=O)=O)c2o1` [Compound No. 1317, 2-(7-methansulfonylbenzoxazol-2-ylthio)-N-[2,4-bis(ethylthio)-6-methyl-3-pyridyl]acetamide], the melting point was 159 to 162 °C. On to `CSc1cc(C)nc(SC)c1NC(=O)CSc1nc2cccc(C(F)(F)F)c2o1` [Compound No. 1247, 2-(7-trifluoromethylbenzoxazol-2-ylthio)-N-[2,4-bis(methylthio)-6-methyl-3-pyridyl]acetamide], for which the melting point fell in the range of 207 to 209 °C.

These data come from patent publication US7414066B2, “Amide compounds and medications containing the same technical field” (Kowa Company Ltd., priority 1999, dated 2008).
